Here are results for five molecules from PubChem BioAssay AID720607 (Broad Institute, 2013).

The experiment concerns CCRF-CEM viability, CellTiter-Glo ATP luminescence, 8-48 h. The experiment can be described thus: CCRF-CEM leukemia cell viability loss, dose response, HRAS target identification, CellTiter-Glo ATP luminescence, 8/24/48 h, dry powder (AID 720607).

Structures are written as SMILES. Records with an inconclusive call do not appear.

What is called AC50 is the midpoint of the concentration-response curve, whichever way the signal moves. A higher AC50 goes with activity only at high concentration. As to `C#CCCCC(=O)NCCOCCOCCOc1ccc(N(C(=O)CCl)C(C(=O)NCCc2ccccc2)c2cccs2)cc1Cl` (stereo not given), the AC50 was found to be 2980 nM (measured here: 8 h treatment), 588 nM (measured here: 24 h treatment) and 565 nM (measured here: 48 h treatment).
As for `Cc1onc(C(=O)N2CCN(C(c3ccc(Cl)cc3)c3ccc(Cl)cc3)CC2)c1[N+](=O)[O-]`, the AC50 reads like this: (measured here: 8 h treatment) 553 nM; (measured here: 24 h treatment) 68.9 nM; (measured here: 48 h treatment) 78.8 nM.
For `COc1ccc(N(C(=O)CCl)C(C(=O)NCCc2ccccc2)c2cccs2)cc1Cl` (stereo not given), the AC50 is, setting by setting: (measured here: 8 h treatment) 321 nM; (measured here: 24 h treatment) 39 nM; (measured here: 48 h treatment) 38.7 nM.
Regarding `COC(=O)c1ccc([C@@H]2c3[nH]c4ccccc4c3C[C@@H](C(=O)OC)N2C(=O)CCl)cc1`, the AC50 is 272 nM (measured here: 8 h treatment), 19.9 nM (measured here: 24 h treatment) and 23.4 nM (measured here: 48 h treatment).
For `CC(C)(C)OC(=O)NCCOCCOCCOc1ccc(N(C(=O)CCl)C(C(=O)NCCc2ccccc2)c2cccs2)cc1Cl` (stereo not given), in that order: 454 nM, 34.4 nM and 41.5 nM.
